{"source": "patent US12630580B2", "about": "“5′-O-phenylacetyluridine and therapeutic use” (PHARMA CINQ, LLC, priority 2020, dated 2026)", "key": {"[1]": {"experiment": "Plasma concentrations of uridine, PB and metabolites after oral administration (comparative bioavailability)", "method": "The delivery of phenylacetate into the bloodstream after oral administration of PAU was also assessed. Sodium phenylbutyrate is used in clinical practice as an ammonia scavenger in hepatic encephalopathy or genetic nitrogen cycle disorders, or as a chaperone or histone deacetylase inhibitor. It is predominantly metabolized to phenylacetate via beta-oxidation in the liver, and phenylacetate mediates the therapeutic benefits of phenylbutyrate. PAU was administered orally at a dose equimolar to 200 mg/kg sodium phenylbutyrate. Female BALB/c mice (n=3-5 group) were given test compounds p.o. and after 30 minutes were retro-orbitally bled to obtain plasma. […] An equimolar dose or uridine was used as a comparator for efficiency of delivery of uridine into the circulation by oral administration of PAU."}, "TNFα": {"tested_on": "TNFα", "experiment": "LPS-induced elevation of plasma TNFα (inflammation model)", "type": "in vivo", "conditions": "female BALB/c mice; for TNF α ± SEM: plasma one hour after LPS", "method": "Injection of bacterial cell wall constituent lipopolysaccharide (LPS) has been used as a model of inflammation. The inflammatory cascade can lead to cellular and organ damage when unchecked.\nFemale BALB/c mice […] of age (n=7-8/group) were treated with Vehicle (0.75% HPMC) or PAU p.o. and 30 minutes later LPS (2.5 mg/kg i.p.) was administered. One hour after LPS, mice were sacrificed and blood was collected for measurement of plasma TNFα."}, "[2]": {"conditions": "female BALB/c mice, p.o., dose equimolar to 200 mg/kg sodium phenylbutyrate, plasma 30 minutes after dosing"}}, "data": [{"compound": "sodium phenylbutyrate [NaPB]", "values": [{"measurement": "Plasma concentration of PA (phenylacetate)", "setting": "[1]; [2]", "value": 401, "unit": "µM"}, {"measurement": "Plasma concentration of PB (phenylbutyrate)", "setting": "[1]; [2]", "value": 26, "unit": "µM"}]}, {"compound": "O=C(Cc1ccccc1)OC[C@H]1O[C@@H](n2ccc(=O)[nH]c2=O)[C@H](O)[C@@H]1O", "note": "[PAU, 5′-O-Phenylacetyluridine]", "values": [{"measurement": "Elevation of plasma uridine and uracil compared with equimolar dose of oral uridine", "setting": "[1]; oral, mice", "value": "elevated plasma uridine and uracil better"}, {"measurement": "TNF α ± SEM", "setting": "TNFα; PAU 165 mg/kg p.o. 30 minutes before LPS 2.5 mg/kg i.p., Vehicle 15,981 ± 2,951", "value": "10,068 ± 2,583 pg/ml"}, {"measurement": "TNF α ± SEM", "setting": "TNFα; PAU 331 mg/kg p.o. 30 minutes before LPS 2.5 mg/kg i.p., p < .05 compared to Vehicle (15,981 ± 2,951)", "value": "7,034 ± 1,236 + pg/ml"}, {"measurement": "Anti-inflammatory effect in the LPS-induced elevation of plasma TNFα", "setting": "TNFα; p.o.", "value": "significant anti-inflammatory effect"}]}]}
